Data set [1] in a line: Solubility in 100 mM glycylglycine buffer at pH 3.0 incubated for 18 hrs by UPLC analysis. The class given is physicochemical.
The target in data set [2] is T1, Amylin receptor AMY3; CALCR/RAMP3 (Homo sapiens, UniProt O60896+P30988).
T1 sequence (P30988 whole entry): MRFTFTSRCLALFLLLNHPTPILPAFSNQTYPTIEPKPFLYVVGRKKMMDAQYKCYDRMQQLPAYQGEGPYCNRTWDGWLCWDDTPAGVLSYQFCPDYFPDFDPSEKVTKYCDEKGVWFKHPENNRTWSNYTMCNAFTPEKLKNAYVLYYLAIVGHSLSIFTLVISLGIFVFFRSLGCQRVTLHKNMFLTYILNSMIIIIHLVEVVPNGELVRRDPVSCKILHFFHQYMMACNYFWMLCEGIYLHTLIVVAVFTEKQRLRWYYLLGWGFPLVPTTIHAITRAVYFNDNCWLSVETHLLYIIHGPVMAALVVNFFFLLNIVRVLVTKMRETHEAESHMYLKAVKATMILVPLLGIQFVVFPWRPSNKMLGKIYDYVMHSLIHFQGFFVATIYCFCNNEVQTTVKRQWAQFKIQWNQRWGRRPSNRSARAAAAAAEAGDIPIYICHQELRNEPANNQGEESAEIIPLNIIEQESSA
T1 sequence (O60896 whole entry): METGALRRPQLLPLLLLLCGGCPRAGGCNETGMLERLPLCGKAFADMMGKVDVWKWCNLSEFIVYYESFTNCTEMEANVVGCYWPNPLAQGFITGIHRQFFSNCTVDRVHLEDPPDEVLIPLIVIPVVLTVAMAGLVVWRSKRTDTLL
The experiment in a line: Agonist activity at human amylin receptor expressed in BHK570 cells co-expressing RAMP3 assessed as increase in intracellular cAMP concentration incubated for 3 hrs in presence of 10% FBS by CRE luciferase reporter gene assay. It is filed as functional, cell-based. A general note: Reporter assays use an easily measured gene product as a stand-in for the process of interest.

Data set [3] concerns the target T2, Calcitonin receptor (Homo sapiens, UniProt P30988).
T2 sequence (P30988 whole entry): T1 sequence (P30988 whole entry)
In words: Displacement of [125I]-labeled human calcitonin from human calcitonin receptor expressed in BHK tkts13 cell membranes incubated for 1 hr by scintillation proximity assay. A general note: In a radioligand displacement assay an active substance lowers the binding of a labelled ligand.

The nature of data set [4]: Solubility in 100 mM bistrispropane buffer at pH 7.0 incubated for 18 hrs by UPLC analysis. It is filed as physicochemical.
Data set [5] deals with T2, Calcitonin receptor. The experiment in a line: Agonist activity at human calcitonin receptor expressed in BHK570 cells assessed as increase in intracellular cAMP concentration incubated for 3 hrs in presence of 10% FBS by CRE luciferase reporter gene assay. It is filed as functional, cell-based.
For data set [6], the system named is Rattus norvegicus. The experiment in a line: Reduction in food intake in Sprague-Dawley rat at 3 nmol/kg measured 24 to 48 hrs post dose relative to control. The class given is functional. Further details: scale not given: the % may be the effect or the level left.
Data set [7] is described as follows: Solubility in 100 mM bistrispropane buffer at pH 7.5 incubated for 18 hrs by UPLC analysis. It is filed as physicochemical.
Data set [8] has as its target T1, Amylin receptor AMY3; CALCR/RAMP3. In words: Agonist activity at human amylin receptor expressed in BHK570 cells co-expressing RAMP3 assessed as increase in intracellular cAMP concentration incubated for 3 hrs in absence of albumin by CRE luciferase reporter gene assay. The class given is functional, cell-based.
The nature of data set [9]: Solubility in 100 mM glycylglycine buffer at pH 4.0 incubated for 18 hrs by UPLC analysis. The class given is physicochemical.
In data set [10] the test system is Rattus norvegicus. In words: Reduction in food intake in Sprague-Dawley rat at 3 nmol/kg measured 0 to 24 hrs post dose relative to control. Further details: scale not given: the % may be the effect or the level left. The class given is functional.
Data set [11] has as its target T1, Amylin receptor AMY3; CALCR/RAMP3. The experiment in a line: Displacement of [125I]-labeled rat amylin from human amylin receptor expressed in BHK570 cell membranes co-expressing RAMP3 incubated for 120 mins by scintillation proximity assay.
Data set [12] can be described thus: Solubility in 100 mM glycylglycine buffer at pH 5.0 incubated for 18 hrs by UPLC analysis. It is filed as physicochemical.
Data set [13] can be described thus: Solubility in 100 mM bistrispropane buffer at pH 6.0 incubated for 18 hrs by UPLC analysis. The class given is physicochemical.
Data set [14] is described as follows: Solubility in 100 mM bistrispropane buffer at pH 6.5 incubated for 18 hrs by UPLC analysis. The class given is physicochemical.
The target of data set [15] is T2, Calcitonin receptor. In words: Agonist activity at human calcitonin receptor expressed in BHK570 cells assessed as increase in intracellular cAMP concentration incubated for 3 hrs in absence of albumin by CRE luciferase reporter gene assay. The class given is functional, cell-based.
For data set [16], the target named is T3, Amylin receptor AMY3; CALCR/RAMP3 (Rattus norvegicus, UniProt P32214+Q9JJ73).
T3 sequence (P32214 whole entry): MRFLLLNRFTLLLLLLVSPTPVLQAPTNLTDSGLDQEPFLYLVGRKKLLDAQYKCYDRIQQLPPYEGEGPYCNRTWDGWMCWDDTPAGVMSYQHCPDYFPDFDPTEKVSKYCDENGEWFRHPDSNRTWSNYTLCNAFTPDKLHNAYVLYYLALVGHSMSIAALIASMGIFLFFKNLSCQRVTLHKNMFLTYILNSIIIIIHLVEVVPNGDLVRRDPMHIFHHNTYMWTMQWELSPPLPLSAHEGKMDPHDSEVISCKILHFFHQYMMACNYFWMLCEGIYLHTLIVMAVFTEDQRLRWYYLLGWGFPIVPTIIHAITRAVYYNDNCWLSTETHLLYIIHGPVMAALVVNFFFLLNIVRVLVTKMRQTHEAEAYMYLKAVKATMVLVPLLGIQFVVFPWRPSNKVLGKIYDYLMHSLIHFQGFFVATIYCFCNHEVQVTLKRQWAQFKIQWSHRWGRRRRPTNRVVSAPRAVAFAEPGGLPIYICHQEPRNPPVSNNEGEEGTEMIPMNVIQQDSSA
T3 sequence (Q9JJ73 whole entry): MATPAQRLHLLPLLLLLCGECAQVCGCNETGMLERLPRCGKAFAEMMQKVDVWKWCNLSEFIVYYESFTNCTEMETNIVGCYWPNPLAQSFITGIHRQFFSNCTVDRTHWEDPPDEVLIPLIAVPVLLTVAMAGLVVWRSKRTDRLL
The experiment in a line: Displacement of [125I]-labeled rat amylin from rat amylin receptor expressed in BHK tkts13 cell membranes co-expressing RAMP3 incubated for 120 mins by scintillation proximity assay.

Data set [17] in a line: Solubility in 100 mM bistrispropane buffer at pH 8.0 incubated for 18 hrs by UPLC analysis. It is filed as physicochemical.
The nature of data set [18]: Stability in pH 7.5 buffer assessed as compound recovery at 1 uM by Thioflavin T based fluorescence assay. The following applies: read-out: Drug recovery. It is filed as physicochemical.
Data set [19] is described as follows: Stability in pH 7.5 buffer assessed as lag time for fibril formation at 1 uM by Thioflavin T based fluorescence assay. The class given is physicochemical. The following applies: pH 7.5, 1 µM.
Data set [20] concerns the target T1, Amylin receptor AMY3; CALCR/RAMP3. The experiment in a line: Displacement of [125I]-labeled rat amylin from human amylin receptor expressed in BHK tkts13 whole cells co-expressing RAMP3 incubated for 60 mins by scintillation proximity assay. The class given is cell-based.

Broadly, the solubility is how much of the substance goes into solution per volume. One may read the EC50 as the midpoint of the concentration-response curve. Usually IC50 stands for the concentration at which inhibition is half-maximal.

The structures appear in SMILES notation. Numbered stars: 1 amine (or outer) side, 2 acyl side, 3 side chain; on linkers, the order of the positions; unused ones are H or OH. Peptide text beside a SMILES is read from it. * marks the point of attachment. C20 diacid = O=C(O)CCCCCCCCCCCCCCCCCCC(=O)*; C18 diacid = O=C(O)CCCCCCCCCCCCCCCCC(=O)*; γGlu = O=C(O)[C@H](CCC(=O)[*:2])N[*:1]; C14 diacid = O=C(O)CCCCCCCCCCCCC(=O)* A value given as a limit tells only on which side of the number the result lay.

Take `CC(C)C[C@H](NC(=O)[C@H](C)NC(=O)[C@H](C)NC(=O)[C@@H](NC(=O)[C@H](CO)NC(=O)[C@H](CC(C)C)NC(=O)[C@H](CCC(=O)O)NC(=O)[C@H](CO)NC(=O)[C@H](C)NC(=O)CCCCCCCCCCCCCCCCC(=O)O)[C@@H](C)O)C(=O)NCC(=O)N[C@@H](CCCNC(=N)N)C(=O)N[C@@H](CC(C)C)C(=O)N[C@@H](CO)C(=O)N[C@@H](C)C(=O)N[C@@H](CCC(=O)O)C(=O)N[C@@H](CC(C)C)C(=O)N[C@@H](Cc1cnc[nH]1)C(=O)N[C@@H](CCC(=O)O)C(=O)N[C@@H](CC(C)C)C(=O)N[C@@H](C)C(=O)N[C@H](C(=O)N[C@@H](CC(C)C)C(=O)N1CCC[C@H]1C(=O)N[C@@H](CCCNC(=N)N)C(=O)N[C@H](C(=O)N[C@@H](CCC(=O)O)C(=O)N[C@H](C(=O)NCC(=O)N[C@@H](CO)C(=O)NCC(=O)N[C@@H](CO)C(=O)N1CCC[C@H]1C(N)=O)[C@@H](C)O)[C@@H](C)O)[C@@H](C)O` ({C18 diacid}-ASELSTAALGRLSAELHELATLPRTETGSGSP-NH2): the solubility at 18 h in [1], in data set [4], in data set [7], in data set [9], in data set [12] and in data set [13] was no less than 200 µM in each case. Besides, the solubility at 18 h in [14] and in [17] was no less than 200 µM each time. Also, the EC50 is 0.009 nM in data set [2], 0.008 nM on Calcitonin receptor [5], 0.018 nM in [8] and 0.017 nM on Calcitonin receptor [15]. For the same molecule, the figures for the IC50 (on Calcitonin receptor [3]; in data set [11]; in [16]) were 0.034 nM, 0.077 nM and 0.063 nM, respectively. The Activity in the data set with Rattus norvegicus [6] came out at 11%; in the data set on Rattus norvegicus [10], 52%.

`CC(C)C[C@H](NC(=O)[C@H](C)NC(=O)[C@H](C)NC(=O)[C@@H](NC(=O)[C@H](CO)NC(=O)[C@H](CC(C)C)NC(=O)[C@H](CCC(=O)O)NC(=O)[C@H](CO)NC(=O)[C@H](C)NC(=O)CC[C@H](NC(=O)CCCCCCCCCCCCC(=O)O)C(=O)O)[C@@H](C)O)C(=O)NCC(=O)N[C@@H](CCCNC(=N)N)C(=O)N[C@@H](CC(C)C)C(=O)N[C@@H](CO)C(=O)N[C@@H](C)C(=O)N[C@@H](CCC(=O)O)C(=O)N[C@@H](CC(C)C)C(=O)N[C@@H](Cc1cnc[nH]1)C(=O)N[C@@H](CCC(=O)O)C(=O)N[C@@H](CC(C)C)C(=O)N[C@@H](C)C(=O)N[C@H](C(=O)N[C@@H](CC(C)C)C(=O)N1CCC[C@H]1C(=O)N[C@@H](CCCNC(=N)N)C(=O)N[C@H](C(=O)N[C@@H](CCC(=O)O)C(=O)N[C@H](C(=O)NCC(=O)N[C@@H](CO)C(=O)NCC(=O)N[C@@H](CO)C(=O)N1CCC[C@H]1C(N)=O)[C@@H](C)O)[C@@H](C)O)[C@@H](C)O` ({C14 diacid-γGlu}-ASELSTAALGRLSAELHELATLPRTETGSGSP-NH2): the solubility at 18 h in data set [1], in data set [4], in [7], in data set [9], in data set [12] and in [13] was no less than 200 µM throughout. Besides, the solubility at 18 h in data set [14] and in [17] was no less than 200 µM throughout. For the same molecule, the IC50 on Calcitonin receptor [3] is 0.023 nM; in [11], 0.054 nM; in data set [16], 0.122 nM. The EC50 in data set [8] was 0.006 nM; on Calcitonin receptor [15], 0.004 nM. In addition, in data set [18], the remaining at 1 µM turned out to be 98%. The Time in [19] was greater than 45 h.

`CC(C)C[C@H](NC(=O)[C@H](C)NC(=O)[C@H](C)NC(=O)[C@@H](NC(=O)[C@H](CO)NC(=O)[C@H](CC(C)C)NC(=O)[C@H](CCC(=O)O)NC(=O)[C@H](CO)NC(=O)[C@H](C)NC(=O)CC[C@H](NC(=O)CCCCCCCCCCCCCCCCCCC(=O)O)C(=O)O)[C@@H](C)O)C(=O)NCC(=O)N[C@@H](Cc1cnc[nH]1)C(=O)N[C@@H](CC(C)C)C(=O)N[C@@H](CO)C(=O)N[C@@H](C)C(=O)N[C@@H](CCC(=O)O)C(=O)N[C@@H](CC(C)C)C(=O)N[C@@H](Cc1cnc[nH]1)C(=O)N[C@@H](CCC(=O)O)C(=O)N[C@@H](CC(C)C)C(=O)N[C@@H](C)C(=O)N[C@H](C(=O)N[C@@H](CC(C)C)C(=O)N1CCC[C@H]1C(=O)N[C@@H](CCCNC(=N)N)C(=O)N[C@H](C(=O)N[C@@H](CCC(=O)O)C(=O)N[C@H](C(=O)NCC(=O)N[C@@H](CO)C(=O)NCC(=O)N[C@@H](CO)C(=O)N1CCC[C@H]1C(N)=O)[C@@H](C)O)[C@@H](C)O)[C@@H](C)O` ({C20 diacid-γGlu}-ASELSTAALGHLSAELHELATLPRTETGSGSP-NH2): the solubility at 18 h in data set [1], in [4], in [7], in [9], in data set [12] and in [13] was no less than 200 µM throughout. Besides, the solubility at 18 h in data set [14] and in [17] was no less than 200 µM in each case. The IC50 is 0.097 nM on Calcitonin receptor [3], 0.697 nM in data set [20], 0.565 nM in [11] and 1.53 nM in [16]. Further, the EC50 on Calcitonin receptor [5] is 0.048 nM; in data set [8], 0.017 nM; on Calcitonin receptor [15], 0.012 nM. In addition, the results for the Activity with Rattus norvegicus [6] and with Rattus norvegicus [10] were 11% and 17%, respectively.

These data come from ChEMBL document CHEMBL4420076, “Amylin and calcitonin receptor agonist” (2017).
